Measured values published in patent publication US6545049B1, “Dimer-selective RXR modulators and methods for their use” (Ligand Pharmaceuticals Incorporated, priority 1995, dated 2003).

Assays:
RXRα:RARα heterodimer = target: T1, RXRα:RARα heterodimer (Homo sapiens, UniProt P19793); assay: Gal4-receptor chimera transactivation assay, RXRα:RARα heterodimer; details: for effect on RXRα:RARα heterodimer in combination with TTNPB (in words): combined with the RXR:RAR activator TTNPB, data not shown; for agonist activity on RXRα:RARα heterodimers (in words): compound alone
T1 sequence (P19793 227-458 limits assumed): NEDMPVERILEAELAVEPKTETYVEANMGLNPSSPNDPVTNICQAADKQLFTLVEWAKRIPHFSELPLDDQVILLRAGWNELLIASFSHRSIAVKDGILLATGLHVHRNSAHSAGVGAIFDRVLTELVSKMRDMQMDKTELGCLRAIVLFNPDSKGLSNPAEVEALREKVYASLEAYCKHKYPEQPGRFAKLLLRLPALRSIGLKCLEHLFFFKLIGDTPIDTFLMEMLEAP
T1 sequence (P10276 183-417 partner limits assumed): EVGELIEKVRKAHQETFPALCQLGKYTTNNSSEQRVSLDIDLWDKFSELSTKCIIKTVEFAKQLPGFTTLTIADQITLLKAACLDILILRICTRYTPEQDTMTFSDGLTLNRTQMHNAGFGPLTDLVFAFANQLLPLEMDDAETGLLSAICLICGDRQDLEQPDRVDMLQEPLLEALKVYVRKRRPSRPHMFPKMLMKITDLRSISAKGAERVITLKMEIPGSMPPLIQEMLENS

RXRβ = target: T2, RXRβ (Mus musculus, UniProt P28704); assay: RXR binding, RXRβ; details: -v- tritiated LGD1069 and tritiated 9-cis retinoic acid
T2 sequence (P28704 1-520): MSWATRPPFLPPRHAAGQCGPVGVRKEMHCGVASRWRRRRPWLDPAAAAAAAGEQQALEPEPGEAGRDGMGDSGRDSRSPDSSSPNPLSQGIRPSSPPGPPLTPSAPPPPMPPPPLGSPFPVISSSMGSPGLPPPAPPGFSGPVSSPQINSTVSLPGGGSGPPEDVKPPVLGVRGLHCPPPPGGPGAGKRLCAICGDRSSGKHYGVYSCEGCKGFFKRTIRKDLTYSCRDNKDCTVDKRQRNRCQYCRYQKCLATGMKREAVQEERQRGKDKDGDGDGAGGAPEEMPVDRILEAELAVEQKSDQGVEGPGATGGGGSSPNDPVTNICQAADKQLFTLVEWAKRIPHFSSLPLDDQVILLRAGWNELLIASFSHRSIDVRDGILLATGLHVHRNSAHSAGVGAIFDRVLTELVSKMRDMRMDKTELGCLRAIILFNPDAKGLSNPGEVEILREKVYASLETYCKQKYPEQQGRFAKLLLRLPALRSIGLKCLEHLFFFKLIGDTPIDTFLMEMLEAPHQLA

RXRα = target: T3, RXRα (Homo sapiens, UniProt P19793); assay: RXR binding, RXRα; details: -v- tritiated LGD1069 and tritiated 9-cis retinoic acid
T3 sequence (P19793 1-462): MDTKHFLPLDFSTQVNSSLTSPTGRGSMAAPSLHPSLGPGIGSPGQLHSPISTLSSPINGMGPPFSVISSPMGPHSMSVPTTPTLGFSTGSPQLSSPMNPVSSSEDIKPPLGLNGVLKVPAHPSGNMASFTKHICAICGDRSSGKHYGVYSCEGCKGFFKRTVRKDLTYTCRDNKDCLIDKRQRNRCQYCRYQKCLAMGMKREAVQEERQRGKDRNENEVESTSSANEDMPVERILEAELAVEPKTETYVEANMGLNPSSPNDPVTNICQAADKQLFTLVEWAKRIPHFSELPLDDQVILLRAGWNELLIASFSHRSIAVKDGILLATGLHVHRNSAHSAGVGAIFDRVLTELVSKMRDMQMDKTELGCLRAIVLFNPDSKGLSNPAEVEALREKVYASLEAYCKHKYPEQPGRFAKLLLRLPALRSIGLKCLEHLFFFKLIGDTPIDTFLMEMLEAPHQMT

RXRα:PPARα heterodimer = target: T4, RXRα:PPARα heterodimer (Homo sapiens, UniProt P19793); assay: RXR heterodimer co-transfection assay (RXRα and PPARα, PPARα response element reporter); details: for Fold activation: normalized luciferase values at 10−5M divided by values with vehicle
T4 sequence (P19793 1-462): T3 sequence (P19793 1-462)
T4 sequence (Q07869 1-468 partner): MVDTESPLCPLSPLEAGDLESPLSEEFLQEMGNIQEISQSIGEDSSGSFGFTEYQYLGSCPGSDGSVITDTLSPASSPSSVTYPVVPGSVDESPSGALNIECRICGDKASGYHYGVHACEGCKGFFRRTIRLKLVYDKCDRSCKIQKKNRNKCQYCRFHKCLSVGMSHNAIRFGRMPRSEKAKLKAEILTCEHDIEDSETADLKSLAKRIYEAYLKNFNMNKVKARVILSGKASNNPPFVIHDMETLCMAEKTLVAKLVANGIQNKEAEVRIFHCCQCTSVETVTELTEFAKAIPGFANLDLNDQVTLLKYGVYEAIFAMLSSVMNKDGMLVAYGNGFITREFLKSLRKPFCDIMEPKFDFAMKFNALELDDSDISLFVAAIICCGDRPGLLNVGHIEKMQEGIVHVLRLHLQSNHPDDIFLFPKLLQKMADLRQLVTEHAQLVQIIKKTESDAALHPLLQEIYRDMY

RXRγ = target: T5, RXRγ (Mus musculus, UniProt P28705); assay: RXR binding, RXRγ; details: -v- tritiated LGD1069 and tritiated 9-cis retinoic acid
T5 sequence (P28705 1-463): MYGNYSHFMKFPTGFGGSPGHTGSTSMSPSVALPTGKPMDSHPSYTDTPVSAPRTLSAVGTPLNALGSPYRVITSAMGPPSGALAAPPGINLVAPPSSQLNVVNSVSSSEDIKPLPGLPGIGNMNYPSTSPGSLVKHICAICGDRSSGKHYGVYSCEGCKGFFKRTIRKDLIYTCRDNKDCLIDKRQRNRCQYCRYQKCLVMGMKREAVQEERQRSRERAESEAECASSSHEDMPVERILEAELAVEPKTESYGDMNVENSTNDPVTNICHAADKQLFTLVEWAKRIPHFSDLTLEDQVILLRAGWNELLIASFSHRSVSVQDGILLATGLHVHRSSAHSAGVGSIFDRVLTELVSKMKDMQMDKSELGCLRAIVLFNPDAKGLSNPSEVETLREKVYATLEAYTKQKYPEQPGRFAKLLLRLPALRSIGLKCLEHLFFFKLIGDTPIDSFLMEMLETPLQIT

RXR:RXR homodimer = target: T6, RXR:RXR homodimer (Homo sapiens, UniProt P19793); assay: RXR homodimer co-transfection assay (FIG. 1); details: in the presence of known RXR activators (LGD1069, LG100268, 9-cis retinoic acid)
T6 sequence (P19793 1-462): T3 sequence (P19793 1-462)

RXRα:RXRα homodimer = target: T7, RXRα:RXRα homodimer (Homo sapiens, UniProt P19793); assay: Gal4-receptor chimera transactivation assay, RXR homodimer; details: for Fold activation: CV-1 cells, 100 nM LG100268, LGD1069, n.e. = no effect; for Fold activation / Fold Repression: 500 nM Compounds 117, 122, 130, 1 mM Compound 131; for agonist activity on RXR homodimers in the GAL4 transfection assay (in words): compound alone; for antagonist activity on RXR homodimers in the GAL4 transfection assay (in words) / Fold Repression: in combination with either LGD1069 or LG100268
T7 sequence (P19793 227-458 limits assumed): T1 sequence (P19793 227-458 limits assumed)
Method: Briefly, CV-1 cells were transfected in 12 well multi-well plates using 0.1 μg of each receptor and 0.5 μg of reporter per well. Each well was also transfected with 0.5 μg of the β-Gal expression plasmid as an internal control for transfection efficiency. Total plasmid per well was 2 μg made up using the plasmid pGEM. […] Receptor ligand binding domains (LBDs) were fused in-frame downstream to the Gal4 cDNA to produce Gal4-receptor fusion proteins. To express only the receptor LBDs, the LBD was cloned directly downstream to the CMV promoter.
Cells were then washed 2X with PBS and lysed using Promega lysis buffer and assayed for luciferase activity and β-galactosidase activity. All results were normalized against β-Gal. Each set was done in triplicates and each experiment was carried out at least 3 separate times with similar results.

CC1(C)CCC(C)(C)c2cc(C(=NO)c3ccc(C(=O)O)cc3)c(OCc3ccccc3)cc21 [Compound 117, cis-4-[(3-benzyloxy-5,6,7,8-tetrahydro-5,5,8,8-tetramethyl-2-naphthyl)carbonyl]benzoic acid oxime]
Fold Repression (RXRα:RARα heterodimer; CV-1 cells, 500 nM Compound 117, in combination with TTNPB): 1.4 fold
effect on RXRα:RARα heterodimer in combination with TTNPB (in words) (RXRα:RARα heterodimer): weak repressor
agonist activity on RXRα:RARα heterodimers (in words) (RXRα:RARα heterodimer): inactive
Kd (RXRβ): 17 nM
Kd (RXRα): 3 nM
EC50 (RXRα:PPARα heterodimer): 900 nM
Fold activation (RXRα:PPARα heterodimer): 9 fold
Kd (RXRγ): 17 nM
melting point: 199 to 205 °C (dec.)
antagonism of RXR homodimer transactivation (in words) (RXR:RXR homodimer): function as antagonists
Fold activation (RXRα:RXRα homodimer): n.e.
agonist activity on RXR homodimers in the GAL4 transfection assay (in words) (RXRα:RXRα homodimer): inactive
antagonist activity on RXR homodimers in the GAL4 transfection assay (in words) (RXRα:RXRα homodimer): moderate antagonist
Fold Repression (RXRα:RXRα homodimer): 1.5 fold

CC1(C)CCC(C)(C)c2cc3c(cc21)CCC=C3Cc1ccc(C(=O)O)cc1 [Compound 131, 4-(3,4,5,6,7,8-hexahydro-5,5,8,8-tetramethyl-anthracen-1-ylmethyl)benzoic acid]
effect on RXRα:RARα heterodimer in combination with TTNPB (in words) (RXRα:RARα heterodimer): slight increase in activation
agonist activity on RXRα:RARα heterodimers (in words) (RXRα:RARα heterodimer): potent agonists
Kd (RXRβ): 105 nM
Kd (RXRα): 140 nM
EC50 (RXRα:PPARα heterodimer): 800 nM
Fold activation (RXRα:PPARα heterodimer): 7 fold
Kd (RXRγ): 107 nM
antagonism of RXR homodimer transactivation (in words) (RXR:RXR homodimer): function as antagonists
Fold activation (RXRα:RXRα homodimer): n.e.
agonist activity on RXR homodimers in the GAL4 transfection assay (in words) (RXRα:RXRα homodimer): inactive
antagonist activity on RXR homodimers in the GAL4 transfection assay (in words) (RXRα:RXRα homodimer): weak antagonist
Fold Repression (RXRα:RXRα homodimer): 1.3 fold
